Molecular target: Recombinant human LSD1 (Homo sapiens, UniProt O60341)
Assay: LSD1 inhibition assay (HTRF LSD1 Histone H3K4 mono-demethylation assay, me1->me0)
Type: biochemical
Details: 20 nM recombinant human LSD1, 95 nM H3K4(me1) biotinylated peptide, 15 min preincubation, 60 min at 25° C., read-out: LSD1 inhibition IC50 (nM range)
Method in brief: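 HTRF demethylation (me1->me0) read-out: streptavidin-XL665 and anti-H3K4me0 cryptate added after reaction, ratio measured after 90 min dark. Reaction: 95 nM H3K4me1 biotin-peptide, 20 nM LSD1 (15-min compound pre-incubation), 60 min, 25 °C, buffer pH 8.5 plus FAD and DTT; 4-parameter logistic IC50.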

| SMILES | IC50 |
| --- | --- |
| N#Cc1ccc(-c2cccc(CN3CC4(CCNCC4)C3)c2Cl)cc1F [Example 288, 2'-chloro-3'-({2,7-diazaspiro[3.5]nonan-2-yl}methyl)-3-fluoro-[1,1'-biphenyl]-4-carbonitrile] | 100 to 1000 nM |
| N#Cc1ccc(-c2cc(CC3CNCCO3)ccc2N2CCCC2)cc1F (stereo not shown) [Example 147, 3-fluoro-5′-[(morpholin-2-yl)methyl]-2′-(pyrrolidin-1-yl)-[1,1′-biphenyl]-4-carbonitrile] | 100 to 1000 nM |
| COCC1CCN(c2ccc(CN3[C@@H]4CC[C@H]3[C@@H](N)C4)cc2-c2ccc(C#N)c(F)c2)CC1 (racemic) [Example 209, 5'-{[(1S,2S,4R)-2-amino-7-azabicyclo[2.2.1]heptan-7-yl]methyl}-3-fluoro-2'-[4-(methoxymethyl)piperidin-1-yl]-[1,1'-biphenyl]-4-carbonitrile] | 10 to 25 nM |
| N#Cc1ccc(-c2cccc(C[C@@H]3CNCCO3)c2C2=CCOC2)cc1F (single isomer, unassigned) [Example 8] | < 10 nM |
| N#Cc1ccc(-c2cc(CC3CNCCO3)ccc2N2CCC(c3ncccn3)CC2)cc1F (stereo not shown) [Example 59, 3-fluoro-5′-[(morpholin-2-yl)methyl]-2′-[4-(pyrimidin-2-yl)piperidin-1-yl]-[1,1′-biphenyl]-4-carbonitrile] | 100 to 1000 nM |
| N#Cc1ccc(-c2cc(CC3CN4CCC4CO3)ccc2N2CCC2)cc1F (stereo not shown) [Example 160, 2′-(azetidin-1-yl)-3-fluoro-5′-({4-oxa-1-azabicyclo[4.2.0]octan-3-yl}methyl)-[1,1′-biphenyl]-4-carbonitrile] | > 1000 nM |
| CC(C)C1(O)CN(c2ccc(CC3CNCCO3)cc2-c2ccc(C#N)c(F)c2)C1 (stereo not shown) [Example 122, 3-fluoro-2′-[3-hydroxy-3-(propan-2-yl)azetidin-1-yl]-5′-[(morpholin-2-yl)methyl]-[1,1′-biphenyl]-4-carbonitrile] | 100 to 1000 nM |
| N#Cc1ccc(-c2cccc(CN3CC4(CCN4)C3)c2Cl)cc1F [Example 292, 2'-chloro-3'-({1,6-diazaspiro[3.3]heptan-6-yl}methyl)-3-fluoro-[1,1'-biphenyl]-4-carbonitrile] | > 1000 nM |
| Cc1cc(CN2C[C@@H]3C[C@H]2CN3C(C)C)c(Cl)c(-c2ccc(C#N)c(F)c2)c1 [Example 297, 2'-chloro-3-fluoro-5'-methyl-3'-{[(1S,4S)-5-(propan-2-yl)-2,5-diazabicyclo[2.2.1]heptan-2-yl]methyl}-[1,1'-biphenyl]-4-carbonitrile] | 100 to 1000 nM |
| CNC1CCN(c2cccc(-c3ccc(C#N)c(F)c3)c2-c2cncs2)CC1 [Example 116, 3-fluoro-3'-[4-(methylamino)piperidin-1-yl]-2'-(1,3-thiazol-5-yl)-[1,1'-biphenyl]-4-carbonitrile] | 10 to 25 nM |
| N#Cc1ccc(-c2cccc(C[C@H]3CNCCO3)c2C2=CCOC2)cc1F (single isomer, unassigned) [Example 22] | 10 to 25 nM |
| CN[C@H]1CCCN(Cc2cccc(-c3ccc(C#N)c(F)c3)c2C2CC2)CC1 [Example 215, 2'-cyclopropyl-3-fluoro-3'-{[(4S)-4-(methylamino)azepan-1-yl]methyl}-[1,1'-biphenyl]-4-carbonitrile] | 25 to 100 nM |
| N#Cc1ccc(-c2cccc(C[C@H]3CNCCO3)c2-c2cncs2)cc1F (single isomer, unassigned) [Example 30] | 10 to 25 nM |
| CC1(c2c(CN3[C@@H]4CC[C@H]3[C@@H](N)C4)cccc2-c2ccc(C#N)c(F)c2)CC1 (racemic) [Example 307, 3'-{[(1S,2S,4R)-2-amino-7-azabicyclo[2.2.1]heptan-7-yl]methyl}-3-fluoro-2'-(1-methylcyclopropyl)-[1,1'-biphenyl]-4-carbonitrile] | 100 to 1000 nM |
| N#Cc1ccc(-c2cc(CN3[C@@H]4CC[C@H]3[C@@H](N)C4)ccc2-c2ccc(F)cn2)cc1F (racemic) [Example 258, 5'-{[(1S,2S,4R)-2-amino-7-azabicyclo[2.2.1]heptan-7-yl]methyl}-3-fluoro-2'-(5-fluoropyridin-2-yl)-[1,1'-biphenyl]-4-carbonitrile] | 25 to 100 nM |
| CC(C)N[C@@H]1C[C@@H]2CC[C@H]1N2Cc1cccc(-c2ccc(C#N)c(F)c2)c1C1CC1 (single isomer, unassigned) [Example 248] | 100 to 1000 nM |
| N#Cc1ccc(-c2cc(CN3CC4(CNCCO4)C3)ccc2N2CCCC2)cc1F [Example 344, 3-fluoro-5'-({5-oxa-2,8-diazaspiro[3.5]nonan-2-yl}methyl)-2'-(pyrrolidin-1-yl)-[1,1'-biphenyl]-4-carbonitrile] | > 1000 nM |
| CN1CCC12CCN(Cc1c(F)ccc(-c3ccc(C#N)c(F)c3)c1F)C2 (stereo not shown) [Example 290, 2', 3,4'-trifluoro-3'-({1-methyl-1,6-diazaspiro[3.4]octan-6-yl}methyl)-[1,1'-biphenyl]-4-carbonitrile] | > 1000 nM |
| N#Cc1ccc(-c2cccc(CC3CNCCO3)c2C2=CCCC2)cc1F (stereo not shown) [Example 64, 2′-(cyclopent-1-en-1-yl)-3-fluoro-3′-[(morpholin-2-yl)methyl]-[1,1′-biphenyl]-4-carbonitrile] | 25 to 100 nM |
| COCC1(O)CCN(c2ccc(CC3CNCCO3)cc2-c2ccc(C#N)c(F)c2)CC1 (stereo not shown) [Example 126, COCC1(O)CCN(CC1)c2ccc(CC3CNCCO3)cc2c4ccc(C#N)c(F)c4] | 100 to 1000 nM |
| N#Cc1ccc(-c2cc(CN3C[C@]4(N)CC[C@H]3C4)ccc2C2CC2)cc1F [Example 308, 5'-{[(1S,4S)-4-amino-2-azabicyclo[2.2.1]heptan-2-yl]methyl}-2'-cyclopropyl-3-fluoro-[1,1'-biphenyl]-4-carbonitrile] | 25 to 100 nM |
| N#Cc1ccc(-c2cccc(CN3CC[C@@H]4NCCC[C@@H]43)c2C2CC2)cc1F [Example 271, Fc1cc(ccc1C#N)c2cccc(CN3CC[C@@H]4NCCC[C@H]34)c2C5CC5] | 100 to 1000 nM |
| CC1(C)CN(Cc2cccc(-c3ccc(C#N)c(F)c3)c2-c2ccns2)C[C@@H]1N (single isomer, unassigned) [Example 197] | < 10 nM |
| CC(c1ccc(N2CCC2)c(-c2ccc(C#N)c(F)c2)c1)C1CNCCO1 (stereo not shown) [Example 76, 2′-(azetidin-1-yl)-3-fluoro-5′-[1-(morpholin-2-yl)ethyl]-[1,1′-biphenyl]-4-carbonitrile] | 100 to 1000 nM |
| N#Cc1ccc(-c2cc(CC3CNCCO3)ccc2N2CCOCC2)cc1F (stereo not shown) [Example 167, 3-fluoro-5′-[(morpholin-2-yl)methyl]-2′-(morpholin-4-yl)-[1,1′-biphenyl]-4-carbonitrile] | > 1000 nM |
| N#Cc1ccc(-c2cc(CC3CNCCO3)ccc2N2CCC(O)(C(F)(F)F)CC2)cc1F (stereo not shown) [Example 151, 3-fluoro-2′-[4-hydroxy-4-(trifluoromethyl)piperidin-1-yl]-5′-[(morpholin-2-yl)methyl]-[1,1′-biphenyl]-4-] | 100 to 1000 nM |
| CC(C)C1(O)CCN(c2ccc(CC3CNCCO3)cc2-c2ccc(C#N)c(F)c2)C1 (stereo not shown) [Example 66, 3-fluoro-2′-[3-hydroxy-3-(propan-2-yl)pyrrolidin-1-yl]-5′-[(morpholin-2-yl)methyl]-[1,1′-biphenyl]-4-carbonitrile] | 100 to 1000 nM |
| Cc1cc(Oc2ccc(CC3CNCCO3)cc2-c2ccc(C#N)c(F)c2)ccn1 (stereo not shown) [Example 121, 3-fluoro-2′-[(2-methylpyridin-4-yl)oxy]-5′-[(morpholin-2-yl)methyl]-[1,1′-biphenyl]-4-carbonitrile] | 100 to 1000 nM |

Reference: patent publication US20260209214A1, “LSD1 MODULATORS” (RECURSION PHARMACEUTICALS, INC., priority 2022, published 2026)
